{"source": "paper PMC7179119", "about": "“A New Positron Emission Tomography Probe for Orexin Receptors Neuroimaging” (Molecules, 2020)", "assay_in_all_cases": "PDSP off-target radioligand binding assay", "key": {"Alpha1B": {"target": "T1, Alpha1B (Homo sapiens, UniProt P35368)", "T1 construct": "NIMH PDSP", "T1 sequence (P35368 1-520)": "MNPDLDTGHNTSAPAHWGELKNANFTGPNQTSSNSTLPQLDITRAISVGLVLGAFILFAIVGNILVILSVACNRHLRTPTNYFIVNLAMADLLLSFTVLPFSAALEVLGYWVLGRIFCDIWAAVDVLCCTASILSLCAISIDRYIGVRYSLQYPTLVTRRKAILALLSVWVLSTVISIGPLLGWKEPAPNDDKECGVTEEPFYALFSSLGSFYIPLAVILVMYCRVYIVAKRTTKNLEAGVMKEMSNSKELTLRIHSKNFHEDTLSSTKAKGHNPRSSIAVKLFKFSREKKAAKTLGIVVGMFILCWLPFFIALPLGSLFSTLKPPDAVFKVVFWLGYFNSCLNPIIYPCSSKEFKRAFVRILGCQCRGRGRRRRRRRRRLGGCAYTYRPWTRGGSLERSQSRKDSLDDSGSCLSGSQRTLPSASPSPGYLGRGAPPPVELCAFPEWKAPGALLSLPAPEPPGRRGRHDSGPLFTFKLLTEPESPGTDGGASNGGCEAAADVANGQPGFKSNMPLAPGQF", "experimental": "(§1) Table S1. Off binding data of CW24.\n(§2) The off-target binding assays were performed at PDSP with their standard protocol (https://pdspdb.unc.edu/pdspWeb/content/UNC-CH%20Protocol%20Book.pdf). In radioligand binding assays, CW24 was tested at a single concentration (10 µM) and in quadruplicate in 96-well plates. The binding assays were carried out in a final of volume of 125 µl per well in appropriate binding buffers. The hot ligand concentration is usually at a concentration close to the Kd (unless otherwise indicated). Total binding and nonspecific binding are determined in the absence and presence of 10 µM of the appropriate reference compound, respectively. In brief, plates are usually incubated at room temperature and in the dark for 90 mins. Reactions are stopped by vacuum filtration onto 0.3% polyethyleneimine (PEI) soaked 96-well filter mats using a 96-well Filtermate harvester, followed by three washes with cold wash buffers (for details, see Tables 2 to 24). Scintillation cocktail is then melted onto the microwave-dried filters on a hot plate and radioactivity is counted in a Microbeta counter.\n(§3) Receptor % Inhibition 1 % Inhibition 2 % Inhibition 3 % Inhibition 4 Mean±SD %"}, "5-HT1E": {"target": "T2, 5-HT1E (Homo sapiens, UniProt P28566)", "T2 construct": "NIMH PDSP", "T2 sequence (P28566 whole entry, species assumed)": "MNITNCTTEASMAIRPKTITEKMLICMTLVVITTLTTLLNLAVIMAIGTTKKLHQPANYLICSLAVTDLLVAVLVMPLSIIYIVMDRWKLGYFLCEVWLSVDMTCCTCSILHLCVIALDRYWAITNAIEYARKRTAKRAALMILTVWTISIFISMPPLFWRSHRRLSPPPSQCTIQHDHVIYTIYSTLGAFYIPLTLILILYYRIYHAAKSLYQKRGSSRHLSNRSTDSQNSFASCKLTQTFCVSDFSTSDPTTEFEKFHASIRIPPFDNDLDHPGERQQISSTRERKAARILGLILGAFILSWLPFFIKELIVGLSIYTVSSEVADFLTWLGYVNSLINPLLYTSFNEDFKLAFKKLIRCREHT", "experimental": "as §1, §2, §3"}, "D1": {"target": "T3, D1 (Homo sapiens, UniProt P21728)", "T3 construct": "NIMH PDSP", "T3 sequence (P21728 whole entry)": "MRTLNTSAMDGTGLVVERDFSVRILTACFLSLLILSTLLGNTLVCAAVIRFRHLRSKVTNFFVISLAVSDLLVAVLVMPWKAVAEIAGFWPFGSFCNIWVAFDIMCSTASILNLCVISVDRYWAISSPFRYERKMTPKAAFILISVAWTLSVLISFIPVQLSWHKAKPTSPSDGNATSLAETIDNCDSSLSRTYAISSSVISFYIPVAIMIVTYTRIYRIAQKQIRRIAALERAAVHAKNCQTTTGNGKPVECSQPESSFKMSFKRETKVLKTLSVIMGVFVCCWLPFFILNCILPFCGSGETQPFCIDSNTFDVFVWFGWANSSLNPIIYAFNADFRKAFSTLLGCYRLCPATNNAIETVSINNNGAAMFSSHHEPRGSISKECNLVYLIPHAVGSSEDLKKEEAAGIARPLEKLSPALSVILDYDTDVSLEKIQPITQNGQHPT", "experimental": "as §1, §2, §3"}, "Alpha2B": {"target": "T4, Alpha2B (Homo sapiens, UniProt P18089)", "T4 construct": "NIMH PDSP", "T4 sequence (P18089 1-450)": "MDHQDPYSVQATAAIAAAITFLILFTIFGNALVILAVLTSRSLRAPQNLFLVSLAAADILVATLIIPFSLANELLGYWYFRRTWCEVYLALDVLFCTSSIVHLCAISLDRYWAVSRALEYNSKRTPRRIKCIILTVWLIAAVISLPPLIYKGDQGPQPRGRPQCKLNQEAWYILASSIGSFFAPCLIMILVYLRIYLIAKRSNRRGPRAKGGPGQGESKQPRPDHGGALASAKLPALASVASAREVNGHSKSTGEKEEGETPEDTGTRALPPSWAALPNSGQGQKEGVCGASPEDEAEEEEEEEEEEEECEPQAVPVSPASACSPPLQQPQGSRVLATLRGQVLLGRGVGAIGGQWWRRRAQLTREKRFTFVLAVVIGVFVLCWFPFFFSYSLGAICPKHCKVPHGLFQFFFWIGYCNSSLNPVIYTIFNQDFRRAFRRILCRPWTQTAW", "experimental": "as §1, §2, §3"}, "M1": {"target": "T5, M1 (Homo sapiens, UniProt P11229)", "T5 sequence (P11229 1-460)": "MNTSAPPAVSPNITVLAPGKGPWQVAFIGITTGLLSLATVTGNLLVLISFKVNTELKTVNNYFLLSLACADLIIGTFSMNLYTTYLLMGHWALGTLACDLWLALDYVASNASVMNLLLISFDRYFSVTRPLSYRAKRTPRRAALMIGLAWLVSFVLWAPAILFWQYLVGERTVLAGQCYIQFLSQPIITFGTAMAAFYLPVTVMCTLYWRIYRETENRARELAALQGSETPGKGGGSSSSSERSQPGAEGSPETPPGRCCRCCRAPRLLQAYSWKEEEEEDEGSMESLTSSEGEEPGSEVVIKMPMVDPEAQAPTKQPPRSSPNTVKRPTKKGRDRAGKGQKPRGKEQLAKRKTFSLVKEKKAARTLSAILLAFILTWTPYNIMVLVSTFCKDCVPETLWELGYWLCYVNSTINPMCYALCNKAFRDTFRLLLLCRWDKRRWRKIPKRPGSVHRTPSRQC", "experimental": "as §1, §2, §3"}, "5-HT1A": {"target": "T6, 5-HT1A (Homo sapiens, UniProt P08908)", "T6 construct": "NIMH PDSP", "T6 sequence (P08908 1-422)": "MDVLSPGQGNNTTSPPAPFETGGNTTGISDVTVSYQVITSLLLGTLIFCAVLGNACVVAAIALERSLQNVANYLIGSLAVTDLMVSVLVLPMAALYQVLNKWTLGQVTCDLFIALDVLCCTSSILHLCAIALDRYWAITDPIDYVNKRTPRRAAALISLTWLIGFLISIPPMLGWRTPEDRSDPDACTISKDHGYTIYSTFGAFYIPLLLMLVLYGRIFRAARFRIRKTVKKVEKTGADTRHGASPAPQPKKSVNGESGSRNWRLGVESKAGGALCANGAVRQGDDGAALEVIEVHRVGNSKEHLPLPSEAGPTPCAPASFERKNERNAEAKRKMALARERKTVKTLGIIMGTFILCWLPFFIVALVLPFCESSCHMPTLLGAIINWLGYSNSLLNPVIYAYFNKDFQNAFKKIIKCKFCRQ", "experimental": "as §1, §2, §3"}, "5-HT6": {"target": "T7, 5-HT6 (Homo sapiens, UniProt P50406)", "T7 construct": "NIMH PDSP", "T7 sequence (P50406 whole entry, species assumed)": "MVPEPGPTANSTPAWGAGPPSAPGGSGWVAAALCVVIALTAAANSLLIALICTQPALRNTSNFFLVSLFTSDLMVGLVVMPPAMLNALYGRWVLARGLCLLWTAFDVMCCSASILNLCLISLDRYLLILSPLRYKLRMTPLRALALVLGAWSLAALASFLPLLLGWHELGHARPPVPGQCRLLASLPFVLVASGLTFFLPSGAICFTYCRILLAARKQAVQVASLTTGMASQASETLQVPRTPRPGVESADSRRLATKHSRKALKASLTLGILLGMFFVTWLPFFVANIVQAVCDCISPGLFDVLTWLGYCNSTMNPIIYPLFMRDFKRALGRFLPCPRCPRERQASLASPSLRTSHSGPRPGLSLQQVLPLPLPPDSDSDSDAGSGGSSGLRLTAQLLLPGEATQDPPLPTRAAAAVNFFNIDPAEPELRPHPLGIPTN", "experimental": "as §1, §2, §3"}, "[1]": {"settings": "quadruplicate, read-out: Mean±SD % inhibition"}, "[2]": {"settings": "replicate 1, read-out: % Inhibition 1"}, "[3]": {"settings": "replicate 2, read-out: % Inhibition 2"}, "[4]": {"settings": "replicate 3, read-out: % Inhibition 3"}, "[5]": {"settings": "replicate 4, read-out: % Inhibition 4"}}, "note": "Read-outs that look alike come from different tables or passages of the source.", "data": [{"smiles": "COc1ccnc(N2CCC3(CCCN(Cc4cn(C)c5ccccc45)C3=O)CC2)n1", "note": "[CW24]", "values": [{"measurement": "inhibition at 10 µM", "setting": "Alpha1B; [1]", "value": "-20.7 ± 12.8", "unit": "%"}, {"measurement": "inhibition at 10 µM", "setting": "Alpha1B; [2]", "value": -6.11, "unit": "%"}, {"measurement": "inhibition at 10 µM", "setting": "Alpha1B; [3]", "value": -16.3, "unit": "%"}, {"measurement": "inhibition at 10 µM", "setting": "Alpha1B; [4]", "value": -36.7, "unit": "%"}, {"measurement": "inhibition at 10 µM", "setting": "Alpha1B; [5]", "value": -23.6, "unit": "%"}, {"measurement": "inhibition at 10 µM", "setting": "5-HT1E; [1]", "value": "18.8 ± 12.2", "unit": "%"}, {"measurement": "inhibition at 10 µM", "setting": "5-HT1E; [2]", "value": 31.3, "unit": "%"}, {"measurement": "inhibition at 10 µM", "setting": "5-HT1E; [3]", "value": 19.5, "unit": "%"}, {"measurement": "inhibition at 10 µM", "setting": "5-HT1E; [4]", "value": 22.5, "unit": "%"}, {"measurement": "inhibition at 10 µM", "setting": "5-HT1E; [5]", "value": 2.07, "unit": "%"}, {"measurement": "inhibition at 10 µM", "setting": "D1; [1]", "value": "17.9 ± 12.8", "unit": "%"}, {"measurement": "inhibition at 10 µM", "setting": "D1; [2]", "value": 22.7, "unit": "%"}, {"measurement": "inhibition at 10 µM", "setting": "D1; [3]", "value": -0.84, "unit": "%"}, {"measurement": "inhibition at 10 µM", "setting": "D1; [4]", "value": 21.9, "unit": "%"}, {"measurement": "inhibition at 10 µM", "setting": "D1; [5]", "value": 28, "unit": "%"}, {"measurement": "inhibition at 10 µM", "setting": "Alpha2B; [1]", "value": "-9.5 ± 13.4", "unit": "%"}, {"measurement": "inhibition at 10 µM", "setting": "Alpha2B; [2]", "value": -8.15, "unit": "%"}, {"measurement": "inhibition at 10 µM", "setting": "Alpha2B; [3]", "value": -23.6, "unit": "%"}, {"measurement": "inhibition at 10 µM", "setting": "Alpha2B; [4]", "value": -14.5, "unit": "%"}, {"measurement": "inhibition at 10 µM", "setting": "Alpha2B; [5]", "value": 8.29, "unit": "%"}, {"measurement": "inhibition at 10 µM", "setting": "M1; [1]", "value": "0.29 ± 11.9", "unit": "%"}, {"measurement": "inhibition at 10 µM", "setting": "M1; [2]", "value": 17.4, "unit": "%"}, {"measurement": "inhibition at 10 µM", "setting": "M1; [3]", "value": -8.79, "unit": "%"}, {"measurement": "inhibition at 10 µM", "setting": "M1; [4]", "value": -6.38, "unit": "%"}, {"measurement": "inhibition at 10 µM", "setting": "M1; [5]", "value": -1.13, "unit": "%"}, {"measurement": "inhibition at 10 µM", "setting": "5-HT1A; [1]", "value": "-10.2 ± 8.4", "unit": "%"}, {"measurement": "inhibition at 10 µM", "setting": "5-HT1A; [2]", "value": -4.55, "unit": "%"}, {"measurement": "inhibition at 10 µM", "setting": "5-HT1A; [3]", "value": -4.08, "unit": "%"}, {"measurement": "inhibition at 10 µM", "setting": "5-HT1A; [4]", "value": -22.1, "unit": "%"}, {"measurement": "inhibition at 10 µM", "setting": "5-HT1A; [5]", "value": -9.84, "unit": "%"}, {"measurement": "inhibition at 10 µM", "setting": "5-HT6; [1]", "value": "5.73 ± 17.3", "unit": "%"}, {"measurement": "inhibition at 10 µM", "setting": "5-HT6; [2]", "value": 17.7, "unit": "%"}, {"measurement": "inhibition at 10 µM", "setting": "5-HT6; [3]", "value": 23.2, "unit": "%"}, {"measurement": "inhibition at 10 µM", "setting": "5-HT6; [4]", "value": -12.3, "unit": "%"}, {"measurement": "inhibition at 10 µM", "setting": "5-HT6; [5]", "value": -5.73, "unit": "%"}]}]}
